Data taken from US20220088044A1, “SUBSTANCES FOR TREATMENT OF CORONAVIRUS INFECTION” (ScandiBio Therapeutics AB, priority 2020, published 2022).
Where two headings read alike, the source gives them in different places.

Key:
[1] = after ingestion of supplemental nicotinamide; cited from earlier work
[2] = cited from earlier work
premature new-borns = settings: 20 mg/kg/day; cited from earlier work
[3] = cited from earlier work; remark: listed apart in the source
[4] = test system: lamb model with increased pulmonary blood flow; settings: chronic treatment; cited from earlier work
[5] = test system: acute myocardial infarction; settings: five controlled trials, n=3108; cited from earlier work
[6] = cited from earlier work; remark: listed apart in the source
[7] = test system: LPS-induced acute lung injury; settings: in vivo; cited from earlier work
[8] = cited from earlier work; remark: listed apart in the source
[9] = test system: patients with community-acquired pneumonia; settings: compared to conventional therapy; cited from earlier work
[10] = test system: epithelial cells exposed to the H5N1 influenza A virus; settings: cited from earlier work
[11] = cited from earlier work; remark: listed apart in the source
COPD exacerbations = settings: in vivo; cited from earlier work
HIV patients = settings: cited from earlier work
[12] = test system: acute respiratory distress syndrome (ARDS); settings: human, in vivo; cited from earlier work
mice = settings: cited from earlier work
blood NAD+ [13] = settings: cited from earlier work
[14] = cited from earlier work; remark: listed apart in the source
blood NAD+ [15] = settings: cited from earlier work; remark: listed apart in the source
[16] = test system: obese subjects with hepatic steatosis; experiment: Short-term dietary supplementation with serine in obese subjects with hepatic steatosis; format: in vivo, human
Description: To test the model-based predictions, we assessed the effect of short-term dietary supplementation with serine on fatty liver and fasting levels of plasma markers of liver functions in six obese subjects (BMI 32.5±2.70 kg/m2) with hepatic steatosis. Each patient received one oral dose of ˜20 g of L-serine (200 mg/kg) per day for 14 days. The supplementation was well-tolerated by all subjects. […] We examined the concept by testing if supplementation of GSH and NAD+ precursors for two weeks would decrease high fat diet induced liver fat accumulation in mice. Therefore, we gave serine 300 mg/kg/day and nicotinamide riboside (NR) 400 mg/kg/day la gavage as well as 1 g/l of NAC (N-acetyl-L-cysteine) in the drinking water for 14 days to high fat diet-fed mice.

[17] = test system: Pasteurella multocida infection; settings: mouse, in vivo; cited from earlier work
[18] = cited from earlier work; remark: listed apart in the source
traumatic brain injury = settings: mouse, in vivo; cited from earlier work
aging mice = settings: mouse, in vivo; cited from earlier work
[19] = test system: adults with hereditary sensory and autonomic neuropathy type 1 (HSAN1); settings: 400 mg/kg/day, long-term (one to two years); cited from earlier work
[20] = test system: patients with chronic hepatitis C; settings: 2 grams 2 times a day, compared to placebo; cited from earlier work

NC(=O)c1cccnc1 [nicotinamide]
flushing or glucose intolerance [1]: no cases of flushing or glucose intolerance have been reported

C[N+](C)(C)CC(O)CC(=O)[O-] (stereo not shown) [carnitine]
side effects ([2]; doses of approximately 3 g/day): nausea, vomiting, abdominal cramps, diarrhoea, and a “fishy” body odor
total carnitine concentrations in plasma and red blood cells (premature new-borns): increases total carnitine concentrations in plasma and red blood cells

C[N+](C)(C)C[C@H](O)CC(=O)[O-] [L-carnitine]
solubility in acetone [3]: insoluble
solubility in water, hot alcohol [3]: readily soluble
lung carnitine homeostasis, oxidative stress, mitochondrial and endothelial function [4]: alleviates changes in lung carnitine homeostasis, reduces associated oxidative stress, and improves pulmonary mitochondrial function, NO signalling and eventually endothelial function
tolerability ([2]; in vivo): usually well tolerated
toxicity from over dosage ([2]; in vivo): no reports of toxicity
heart failure, unstable angina, or myocardial reinfarction: daily 2 g versus 6 g [5]: no significant differences
absolute bioavailability ([6]; in vivo): 15-16%
faecal excretion of total carnitine ([6]; in vivo): less than 1 % of the administered dose
mean apparent terminal elimination half-life ([6]; in vivo): 17.4 h
mean distribution half-life ([6]; in vivo): ~36 min
removal from plasma by dialysis ([6]; in vivo): easily removed from plasma by dialysis
total body clearance (Dose/AUC including endogenous baseline concentrations), mean ([6]; in vivo): 4.00 L/h
binding to plasma protein or albumin ([6]; tested at any concentration): not bound

O=C(O)c1cccnc1 [niacin]
LPS-induced acute lung injury [7]: alleviate LPS-induced acute lung injury

CC(=O)N[C@@H](CS)C(=O)O [NAC, N-acetylcysteine]
half-life ([8]; adults): 5.6 to 6 h
time to peak plasma concentration ([8]; after application): 30 to 60 min
absorption ([8]; after oral administration): rapidly absorbed
share of amount passed to the blood determined in the lungs ([8]; after oral administration): 48%
distribution volume (Vd) ([8]; in vivo): 0.33 to 0.47 L/kg
excreted in urine in the form of sulfate and taurine ([8]; in vivo): 22-30%
rate of binding to plasma proteins ([8]; in vivo): about 50%
effect of food intake ([8]; oral): not affected
inflammatory response and oxidative stress [9]: improves inflammatory response and oxidative stress
inflammatory response [10]: reduce
safety profile ([11]; HIV-infected patients, oral 6,000-8,000 mg daily for several months): good safety profile
safety in humans ([11]; daily dosage of 4-6 grams): shown to be safe
serious adverse events or signs of intoxication ([11]; even at very high doses): serious adverse events or signs of intoxication are not observed
incidence of most common adverse reactions (rash, urticaria/facial flushing, pruritus, nausea and vomiting) ([11]; in vivo): greater than 2%
anaphylactic reactions, share of people ([11]; within 30 min after IV loading dose): 3-6%
number and effect of COPD exacerbations (COPD exacerbations): reduce the number and effect of COPD exacerbations
glutathione levels in red blood cells (HIV patients; 900 mg or 1800 mg twice daily): increased significantly
red blood cell oxidized glutathione levels (HIV patients; 900 mg or 1800 mg twice daily): decreased significantly
glutathione: glutathione disulfide (GSH:GSSG) ratios (HIV patients; both doses compared to placebo): generally non-significant increased
duration of stay in intensive care [12]: has been shortened
short-term mortality or 30-day mortality [12]: did not contribute to reducing short-term mortality or 30-day mortality

CC(=O)N[C@@H](CSN=O)C(=O)O [SNOAC, S-nitroso-N-acetylcysteine]
expression of several important genes (mice; in vitro and in vivo): induced a hypoxia-like response
blood pressure in lungs and right ventricle (pulmonary artery hypertension) (mice; metabolite formed in mice treated with acetylcysteine): increased blood pressure in the lungs and right ventricle of the heart

NC(=O)c1ccc[n+]([C@@H]2O[C@H](CO)[C@@H](O)[C@H]2O)c1 [NR, Nicotinamide riboside]
blood NAD+ metabolome (blood NAD+ [13]; single doses of 100, 300 and 1,000 mg): dose-dependent increases
rise of human blood NAD+ (blood NAD+ [13]; single oral dose, pilot study): ≤ 2.7 fold
lowest observed adverse effect level ([14]; 90-day study): 1000 mg/kg/day
no observed adverse effect level ([14]; 90-day study): 300 mg/kg/day
mortality ([14]; oral dose of 5000 mg/kg): no mortality
tolerability (blood NAD+ [15]; oral, 250 mg up-titrated to 1000 mg twice daily, 9 days): well tolerated with no adverse events
increase of blood NAD+, baseline to steady state (blood NAD+ [15]; p=0.001): 100%
whole-blood NR, baseline to mean concentration at steady state (blood NAD+ [15]; p=0.03): Significant increases

N[C@@H](CO)C(=O)O [L-serine]
ALT, AST, and ALP levels ([16]; after 14 days supplementation): significantly decreased
liver fat ([16]; after ~20 g L-serine (200 mg/kg) oral per day for 14 days, decreased significantly from 26.8±6.0%): 20.4±7.0%
tolerability ([16]; ~20 g L-serine per day for 14 days): well-tolerated
macrophage- and neutrophil-mediated inflammatory responses [17]: decrease the macrophage- and neutrophil-mediated inflammatory responses
safety in humans ([18]; doses up to 400 mg/kg/day (around 25-30 g/day)): shown to be safe
safety in pregnancy ([18]; three daily doses of 5 g (190 mg/kg), pre- and postnatal treatment of 3-phosphoglycerate-dehydrogenase deficiency): safe even in pregnancy
neuroprotection (traumatic brain injury): lead to neuroprotection
body weight, oxidative stress and inflammation (aging mice): reduce body weight by decreasing orexigenic peptide expression and reduces oxidative stress and inflammation
adverse effects (vital signs, physical examination, clinical laboratory) [19]: did not reveal adverse effects

CC(=O)O[C@H](CC(=O)[O-])C[N+](C)(C)C [Acetyl-L-Carnitine]
daily activity and fatigue [20]: increase daily activity in patients, reduce fatigue
